Some test systems named below: HCT-15; SN12C; Malme-3M; UACC-257; OVCAR-5; M14; ACHN; IGROV-1; LOX IMVI; HT-29; NCI-H23; COLO 205; SF-539; A549; MOLT-4; HOP-92; A498; NCI-H522; HCC 2998; NCI-H226.
Holding throughout (assay): growth of human tumour cells (NCI), 48 h

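Values below derive from 48-hour exposures of cells grown in 96-well plates, with endpoints linearly interpolated between the two concentrations bracketing the appropriate inhibition level. GI50: concentration for 50% inhibition of growth.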 Active and inactive are the calls of the source. No stated cut-off is given here; in the data, active = GI50 up to about 1.1 µM and inactive = higher. Where only a bound is given, the exact number is not on record here.

For `CC(=O)c1c(-c2ccco2)c(C#N)c(=S)n(C2OC(CO)C(O)C(O)C2O)c1-c1ccccc1` (configuration not stated), the GI50 was 73.3 µM in the assay on HCT-15; 54.5 µM (inactive) in the assay on SN12C; 63.2 µM (inactive) with Malme-3M; > 100 µM (inactive) with UACC-257; > 100 µM (inactive) in the assay with OVCAR-5; 40.5 µM (inactive) in the assay on M14. Also, the GI50 was > 100 µM (inactive) with ACHN; > 100 µM (inactive) in the assay with IGROV-1; 36.2 µM (inactive) in the assay on LOX IMVI; > 100 µM (inactive) with HT-29; 31.8 µM (inactive) in the assay on NCI-H23; > 100 µM (inactive) in the assay on COLO 205. The GI50 with SF-539 is 45.2 µM (inactive); with A549, > 100 µM (inactive); in the assay with MOLT-4, 31.6 µM (inactive).
In the case of `CC(=O)OC1COC(N2c3ccccc3[C@@H]3CCc4c([nH]c5ccccc45)[C@@H]32)C(OC(C)=O)C1OC(C)=O.CC(=O)OC1COC(N2c3ccccc3[C@H]3CCc4c([nH]c5ccccc45)[C@H]32)C(OC(C)=O)C1OC(C)=O` (some centres not stated), the GI50 is 57.7 µM (inactive) with HOP-92; 47 µM with HCT-15; 17.7 µM (inactive) in the assay with A498; 59.3 µM (inactive) with SN12C; > 100 µM (inactive) in the assay on Malme-3M; 72.1 µM (inactive) in the assay with UACC-257. For the same compound, the GI50 with OVCAR-5 was > 100 µM (inactive); with M14 it was 42.6 µM (inactive); in the assay on IGROV-1 it was 2.76 µM (inactive); with HT-29, 62.2 µM (inactive); in the assay on NCI-H522 it was 12.8 µM (inactive); in the assay with NCI-H23 it was 57.8 µM (inactive). In addition, the GI50 was 19.2 µM (inactive) with COLO 205, 16.7 µM (inactive) with A549, 5.79 µM (inactive) in the assay on MOLT-4 and 40.1 µM (inactive) in the assay on HCC 2998.
Regarding `O=C1c2cccc(O)c2C(=O)c2c(O)cc(CO)cc21` [ALOE-EMODIN], the GI50 is > 100 µM (inactive) in the assay with HOP-92; 28.1 µM with HCT-15; 74.3 µM (inactive) in the assay with A498; 35.4 µM (inactive) in the assay with SN12C; 20.8 µM (inactive) in the assay with Malme-3M; 49.8 µM (inactive) in the assay with UACC-257. Also, the GI50 with NCI-H226 was > 100 µM (inactive); with OVCAR-5, > 100 µM (inactive); with M14 it was 38.4 µM (inactive); in the assay with ACHN it was 32.7 µM (inactive); with LOX IMVI, 26.2 µM (inactive); in the assay with HT-29, 30.9 µM (inactive). Besides, the GI50 with NCI-H522 was 22.8 µM (inactive); in the assay on NCI-H23, > 100 µM (inactive); with COLO 205, 31.7 µM (inactive); in the assay with A549, 40 µM (inactive); with MOLT-4 it was 40.8 µM (inactive); with HCC 2998 it was 83.9 µM (inactive).
With `CCN1c2ccccc2-n2c(C)nnc2-c2c(-c3ccccc3)n[nH]c21`, the GI50 in the assay on HOP-92 is 50.7 µM (inactive); in the assay with HCT-15, 11.1 µM; in the assay with SN12C, 24.4 µM (inactive); in the assay with UACC-257, > 100 µM (inactive); with OVCAR-5, > 100 µM (inactive); in the assay on M14, 26.4 µM (inactive). The GI50 with ACHN is 14.3 µM (inactive); in the assay with IGROV-1, 21.4 µM (inactive); in the assay with LOX IMVI, 23.1 µM (inactive); in the assay with HT-29, 24.5 µM (inactive); with NCI-H522, 2.25 µM (inactive); with NCI-H23 it was 35.5 µM (inactive). For the same compound, the GI50 in the assay with COLO 205 was 32.4 µM (inactive); in the assay on SF-539, 43.4 µM (inactive); with A549, 22.4 µM (inactive); in the assay with MOLT-4 it was 18.2 µM (inactive).
Consider `COc1ccc(-c2cc(O)c3c(C)ccnc3n2)cc1`, for which the GI50 with HCT-15 is 5.61 µM; in the assay on A498, 14.3 µM (inactive); with SN12C it was 27.7 µM (inactive); with Malme-3M, 10.8 µM (inactive); in the assay with UACC-257, 33.7 µM (inactive); in the assay on NCI-H226 it was 33.5 µM (inactive). Also, the GI50 was 20.5 µM (inactive) in the assay on OVCAR-5; 10.8 µM (inactive) in the assay on M14; 21.2 µM (inactive) in the assay with ACHN; 5.64 µM (inactive) with IGROV-1; 14.3 µM (inactive) with LOX IMVI; 4.93 µM (inactive) in the assay with HT-29. Moreover, the GI50 was 8.13 µM (inactive) in the assay with NCI-H522; 19 µM (inactive) with NCI-H23; 4.26 µM (inactive) with COLO 205; 17.4 µM (inactive) in the assay on SF-539; 10.3 µM (inactive) with A549; 12.1 µM (inactive) with MOLT-4. In addition, in the assay on HCC 2998, the GI50 is 22.5 µM (inactive).
For `O=C(N/C(=C\c1ccccc1[N+](=O)[O-])c1nc2ccccc2[nH]1)c1ccccc1`, the GI50 in the assay on HOP-92 was 40.1 µM (inactive); in the assay on HCT-15, 88.9 µM; in the assay with SN12C it was > 100 µM (inactive); with Malme-3M, > 100 µM (inactive); in the assay with OVCAR-5 it was > 100 µM (inactive); in the assay on M14 it was > 100 µM (inactive). Also, the GI50 in the assay with IGROV-1 was > 100 µM (inactive); with HT-29, > 100 µM (inactive); in the assay with NCI-H522, 56.8 µM (inactive); in the assay with NCI-H23, > 100 µM (inactive); with COLO 205 it was > 100 µM (inactive); in the assay on MOLT-4, 35.1 µM (inactive). In the assay on HCC 2998, the GI50 was > 100 µM (inactive).
Regarding `CC1=Nc2c(N)nc(N)nc2N(C)C1`, the GI50 is over 100 µM in the assay on HCT-15; > 100 µM (inactive) with SN12C; > 100 µM (inactive) with Malme-3M; > 100 µM (inactive) in the assay with UACC-257; > 100 µM (inactive) with NCI-H226; > 100 µM (inactive) in the assay with OVCAR-5. The GI50 in the assay on M14, in the assay on ACHN, with IGROV-1, with NCI-H23, in the assay with COLO 205 and in the assay on SF-539 was > 100 µM (inactive) throughout. The GI50 with MOLT-4 is > 100 µM (inactive).
For `Cc1nc(Cl)c(C)c(Cl)n1`, the GI50 was over 63.4 µM with HCT-15; > 100 µM (inactive) in the assay on A498; > 100 µM (inactive) with SN12C; > 100 µM (inactive) in the assay with Malme-3M; > 100 µM (inactive) in the assay with UACC-257; > 100 µM (inactive) in the assay on NCI-H226. For the same compound, the GI50 in the assay with OVCAR-5 is > 100 µM (inactive); in the assay on M14, 37.7 µM (inactive); in the assay with ACHN, > 100 µM (inactive); with IGROV-1, 15.9 µM (inactive); in the assay on LOX IMVI it was 33 µM (inactive); in the assay with HT-29 it was > 44.7 µM (inactive). In addition, the GI50 in the assay with NCI-H522 is < 0.01 µM (active); in the assay with NCI-H23, 35.3 µM (inactive); in the assay on COLO 205 it was > 100 µM (inactive); in the assay with SF-539, > 100 µM (inactive); in the assay on A549, > 100 µM (inactive); with MOLT-4, 6.17 µM (inactive). In addition, in the assay on HCC 2998, the GI50 is 99.1 µM (inactive).
In the case of `CCOC(=O)NC(Nc1ncccn1)(C(F)(F)F)C(F)(F)F`, the GI50 with HCT-15 was over 100 µM; in the assay with A498 it was > 100 µM (inactive); in the assay on SN12C, > 100 µM (inactive); with Malme-3M it was > 100 µM (inactive); with UACC-257, > 100 µM (inactive); with NCI-H226, > 100 µM (inactive). Further, the GI50 with OVCAR-5, in the assay with M14, in the assay with ACHN, in the assay on LOX IMVI, in the assay with HT-29 and in the assay with NCI-H522 was > 100 µM (inactive) in each case. Also, the GI50 in the assay on NCI-H23, with SF-539, with MOLT-4 and in the assay with HCC 2998 was > 100 µM (inactive) each time.
`CCOc1ncn(-c2ccc(NC(=S)Nc3ncccn3)cc2)n1`: the GI50 with HOP-92 was 33.5 µM (inactive); with HCT-15, 39 µM; with SN12C, 51.1 µM (inactive); in the assay on UACC-257, 28.9 µM (inactive); in the assay on OVCAR-5, 54.8 µM (inactive); in the assay on M14 it was 31.5 µM (inactive). The GI50 was 26.5 µM (inactive) with IGROV-1; 17.6 µM (inactive) with LOX IMVI; 13 µM (inactive) in the assay on HT-29; 17.4 µM (inactive) in the assay on NCI-H522; 81.5 µM (inactive) in the assay on NCI-H23; 29.5 µM (inactive) in the assay with COLO 205. The GI50 with SF-539 was 15.4 µM (inactive); in the assay with A549 it was 32.1 µM (inactive); in the assay on MOLT-4, 20.1 µM (inactive); in the assay with HCC 2998 it was 25.9 µM (inactive).
Regarding `CCP(=O)(CC)C(Cl)(Cl)C(O)C(Cl)(Cl)Cl` (configuration not stated), the GI50 in the assay with HOP-92 was > 100 µM (inactive); with HCT-15, over 100 µM; with SN12C, > 100 µM (inactive); in the assay with UACC-257, > 100 µM (inactive); with NCI-H226, > 100 µM (inactive); in the assay with OVCAR-5 it was > 100 µM (inactive). Moreover, the GI50 with M14, with ACHN, in the assay on IGROV-1, in the assay on LOX IMVI, in the assay with HT-29 and in the assay on NCI-H522 was > 100 µM (inactive) each time. Further, the GI50 in the assay on NCI-H23, in the assay with COLO 205, in the assay on A549, with MOLT-4 and with HCC 2998 was > 100 µM (inactive) in each case.
Turning to `O=C1CCC(=O)C1=NNc1ccccc1`, the GI50 in the assay with HOP-92 is > 100 µM (inactive); in the assay on HCT-15 it was over 100 µM; in the assay with A498 it was 43.6 µM (inactive); with SN12C it was > 100 µM (inactive); with Malme-3M, > 100 µM (inactive); in the assay with UACC-257, > 100 µM (inactive). Besides, the GI50 with NCI-H226, in the assay with OVCAR-5, in the assay on M14, with ACHN, in the assay with IGROV-1 and in the assay with LOX IMVI was > 100 µM (inactive) in each case. The GI50 in the assay with HT-29, in the assay with NCI-H23, in the assay on COLO 205, in the assay on SF-539, with A549 and in the assay on MOLT-4 was > 100 µM (inactive) each time. In the assay with HCC 2998, the GI50 was > 100 µM (inactive).
